Measured values taken from ChEMBL document CHEMBL1201862, “PubChem BioAssay data set” (2004).
Calls of active or inactive are those of the source.

Columns and labels:
[1] = biological target: T1, Dual specificity protein phosphatase 3 (Homo sapiens, UniProt P51452); experiment: VHR1 phosphatase inhibitors, primary screen, biochemical, absorbance, uHTS (AID 1654)
[2] = biological target: T2, Tyrosine-protein phosphatase non-receptor type 7 (Homo sapiens, UniProt P35236); format: functional
T2 sequence (P35236 whole entry): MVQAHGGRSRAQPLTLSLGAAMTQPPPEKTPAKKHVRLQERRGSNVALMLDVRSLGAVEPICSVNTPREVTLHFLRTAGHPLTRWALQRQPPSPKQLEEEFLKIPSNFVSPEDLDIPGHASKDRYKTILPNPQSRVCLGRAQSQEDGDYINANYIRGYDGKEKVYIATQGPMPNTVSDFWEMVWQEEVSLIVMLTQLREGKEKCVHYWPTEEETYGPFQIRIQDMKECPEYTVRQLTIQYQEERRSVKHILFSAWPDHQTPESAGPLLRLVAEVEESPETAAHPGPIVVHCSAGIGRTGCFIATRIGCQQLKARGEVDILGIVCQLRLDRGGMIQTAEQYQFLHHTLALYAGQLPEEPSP

[3] = biological target: T1, Dual specificity protein phosphatase 3; experiment: VHR1 phosphatase inhibitors, biochemical (AID 1878)
[4] = biological target: Dual specificity protein phosphatase 6 (Rattus norvegicus, UniProt Q64346); experiment: inhibition of rat DUSP6 enzyme activity – biochemical, in vitro, primary screen (AID 425)
[5] = biological target: 5-hydroxytryptamine receptor 5A (Homo sapiens, UniProt P47898); experiment: Counterscreen for agonists of OPRM1-OPRD1 heterodimerization: luminescence-based cell-based high throughput dose response assay to identify agonists of 5-hydroxytryptamine (serotonin) 5A receptor (HTR5A). [Related pubchem assays (depositor defined):AID504326, AID504355, AID504692, AID504904, AID504905]; format: functional
Sequence of 5-hydroxytryptamine receptor 5A (P47898 whole entry): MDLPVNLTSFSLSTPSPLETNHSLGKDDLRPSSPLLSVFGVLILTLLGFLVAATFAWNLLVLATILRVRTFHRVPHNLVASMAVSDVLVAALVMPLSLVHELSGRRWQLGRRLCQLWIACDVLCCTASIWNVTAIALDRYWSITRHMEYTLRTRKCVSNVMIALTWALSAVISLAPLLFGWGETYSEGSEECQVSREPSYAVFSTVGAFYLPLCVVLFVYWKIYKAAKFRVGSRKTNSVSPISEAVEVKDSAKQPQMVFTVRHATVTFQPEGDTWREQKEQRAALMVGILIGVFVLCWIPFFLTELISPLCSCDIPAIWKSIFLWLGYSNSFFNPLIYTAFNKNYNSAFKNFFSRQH

[6] = biological target: T3, Tyrosyl-DNA phosphodiesterase 2 (Homo sapiens, UniProt O95551); experiment: potency against TDP2 phosphodiesterase activity – biochemical, epi absorbance, IC50, dose response (AID 743297)
T3 sequence (O95551 whole entry): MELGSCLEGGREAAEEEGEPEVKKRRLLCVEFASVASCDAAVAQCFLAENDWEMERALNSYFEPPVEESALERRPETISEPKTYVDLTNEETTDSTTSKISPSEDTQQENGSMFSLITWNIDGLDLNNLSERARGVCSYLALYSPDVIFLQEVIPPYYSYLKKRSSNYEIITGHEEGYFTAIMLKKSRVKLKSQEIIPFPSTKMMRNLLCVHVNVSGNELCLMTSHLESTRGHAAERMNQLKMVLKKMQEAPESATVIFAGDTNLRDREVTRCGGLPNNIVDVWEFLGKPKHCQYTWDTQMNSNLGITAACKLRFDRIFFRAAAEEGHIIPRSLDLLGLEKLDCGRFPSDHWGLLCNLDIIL

Caspase-8 = Caspase-8 (Homo sapiens, UniProt Q14790); experiment: inhibitors of purified CASP8 protease – biochemical, Z-IETD-R110 fluorescence, cherry-picked samples, selectivity assay for caspase-6 inhibitor project, dose response (AID 743294)
[7] = biological target: RNA-editing ligase 1, mitochondrial (Trypanosoma brucei brucei, UniProt P86926); experiment: inhibition of trypanosome RNA editing ligase – biochemical, fluorescence, Trypanosoma brucei, dose response (AID 1117295); format: functional
Sequence of RNA-editing ligase 1, mitochondrial (P86926 whole entry): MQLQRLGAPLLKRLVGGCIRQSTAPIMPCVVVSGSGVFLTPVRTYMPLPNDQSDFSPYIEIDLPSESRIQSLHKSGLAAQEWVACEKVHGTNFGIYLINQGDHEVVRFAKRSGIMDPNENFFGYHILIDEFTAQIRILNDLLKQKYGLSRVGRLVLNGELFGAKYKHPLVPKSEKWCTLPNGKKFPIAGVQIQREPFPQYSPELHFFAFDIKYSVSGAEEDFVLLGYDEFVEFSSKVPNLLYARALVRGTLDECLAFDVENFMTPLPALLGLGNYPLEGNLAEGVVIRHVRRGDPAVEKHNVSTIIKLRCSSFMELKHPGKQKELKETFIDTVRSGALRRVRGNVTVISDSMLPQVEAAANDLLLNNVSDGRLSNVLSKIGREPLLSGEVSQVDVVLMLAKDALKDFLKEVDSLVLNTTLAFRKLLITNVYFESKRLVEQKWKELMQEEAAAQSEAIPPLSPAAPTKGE

[8] = biological target: T4, Serine/threonine-protein phosphatase (Homo sapiens, UniProt Q9BPW0); experiment: inhibition of protein phosphatase 5 activity – biochemical, fluorescence, dose response (AID 2395)
T4 sequence (Q9BPW0 whole entry): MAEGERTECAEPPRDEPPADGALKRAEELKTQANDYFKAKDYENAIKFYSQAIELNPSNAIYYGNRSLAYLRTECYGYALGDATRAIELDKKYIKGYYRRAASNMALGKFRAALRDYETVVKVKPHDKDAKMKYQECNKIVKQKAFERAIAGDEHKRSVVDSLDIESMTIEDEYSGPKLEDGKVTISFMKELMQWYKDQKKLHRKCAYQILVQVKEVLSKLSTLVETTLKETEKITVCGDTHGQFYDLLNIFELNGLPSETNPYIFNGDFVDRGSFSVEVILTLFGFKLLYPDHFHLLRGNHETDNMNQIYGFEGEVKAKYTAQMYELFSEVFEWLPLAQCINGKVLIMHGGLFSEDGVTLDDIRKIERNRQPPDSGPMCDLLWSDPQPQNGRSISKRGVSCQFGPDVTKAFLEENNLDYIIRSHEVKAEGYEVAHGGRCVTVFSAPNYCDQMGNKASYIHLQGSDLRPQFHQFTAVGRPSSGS

[9] = biological target: Dual specificity protein kinase CLK2 (Homo sapiens, UniProt P49760); format: functional
[10] = biological target: RAC-gamma serine/threonine-protein kinase (Homo sapiens, UniProt Q9Y243); format: functional
[11] = biological target: PAS domain-containing serine/threonine-protein kinase (Homo sapiens, UniProt Q96RG2); format: functional
[12] = biological target: Calcium/calmodulin-dependent protein kinase type II subunit delta (Homo sapiens, UniProt Q13557); format: functional
Sequence of Calcium/calmodulin-dependent protein kinase type II subunit delta (Q13557 whole entry, canonical isoform): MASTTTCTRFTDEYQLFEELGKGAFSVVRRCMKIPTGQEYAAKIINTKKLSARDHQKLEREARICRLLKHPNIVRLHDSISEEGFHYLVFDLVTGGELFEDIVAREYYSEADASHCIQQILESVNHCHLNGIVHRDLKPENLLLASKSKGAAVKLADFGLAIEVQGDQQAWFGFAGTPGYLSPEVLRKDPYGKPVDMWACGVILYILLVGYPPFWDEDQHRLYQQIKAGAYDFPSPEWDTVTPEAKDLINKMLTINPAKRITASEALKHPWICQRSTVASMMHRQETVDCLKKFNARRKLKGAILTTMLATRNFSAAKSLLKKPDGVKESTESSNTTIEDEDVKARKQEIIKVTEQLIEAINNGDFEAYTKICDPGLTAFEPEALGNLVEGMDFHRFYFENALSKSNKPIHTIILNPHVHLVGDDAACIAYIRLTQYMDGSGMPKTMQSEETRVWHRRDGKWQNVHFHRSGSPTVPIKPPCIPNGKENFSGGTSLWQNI

[13] = biological target: Casein kinase I isoform alpha (Homo sapiens, UniProt P48729); format: functional
Sequence of Casein kinase I isoform alpha (P48729 whole entry, canonical isoform): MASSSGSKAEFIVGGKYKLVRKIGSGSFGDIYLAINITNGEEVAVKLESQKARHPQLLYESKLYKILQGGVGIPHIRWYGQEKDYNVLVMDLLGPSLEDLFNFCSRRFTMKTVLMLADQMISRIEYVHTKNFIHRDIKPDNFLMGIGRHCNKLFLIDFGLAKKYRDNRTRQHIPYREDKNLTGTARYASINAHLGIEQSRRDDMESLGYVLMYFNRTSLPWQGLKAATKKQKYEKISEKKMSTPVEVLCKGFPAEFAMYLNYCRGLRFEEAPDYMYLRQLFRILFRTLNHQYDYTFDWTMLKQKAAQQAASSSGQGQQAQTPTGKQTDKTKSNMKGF

[14] = biological target: Serine/threonine-protein kinase TAO1 (Homo sapiens, UniProt Q7L7X3); format: functional
Insulin receptor = Insulin receptor (Homo sapiens, UniProt P06213); format: functional;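 note: insulin receptor kinase tested as one member of a kinome-wide kinase panel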
Sequence of Insulin receptor (P06213 28-758 limits assumed): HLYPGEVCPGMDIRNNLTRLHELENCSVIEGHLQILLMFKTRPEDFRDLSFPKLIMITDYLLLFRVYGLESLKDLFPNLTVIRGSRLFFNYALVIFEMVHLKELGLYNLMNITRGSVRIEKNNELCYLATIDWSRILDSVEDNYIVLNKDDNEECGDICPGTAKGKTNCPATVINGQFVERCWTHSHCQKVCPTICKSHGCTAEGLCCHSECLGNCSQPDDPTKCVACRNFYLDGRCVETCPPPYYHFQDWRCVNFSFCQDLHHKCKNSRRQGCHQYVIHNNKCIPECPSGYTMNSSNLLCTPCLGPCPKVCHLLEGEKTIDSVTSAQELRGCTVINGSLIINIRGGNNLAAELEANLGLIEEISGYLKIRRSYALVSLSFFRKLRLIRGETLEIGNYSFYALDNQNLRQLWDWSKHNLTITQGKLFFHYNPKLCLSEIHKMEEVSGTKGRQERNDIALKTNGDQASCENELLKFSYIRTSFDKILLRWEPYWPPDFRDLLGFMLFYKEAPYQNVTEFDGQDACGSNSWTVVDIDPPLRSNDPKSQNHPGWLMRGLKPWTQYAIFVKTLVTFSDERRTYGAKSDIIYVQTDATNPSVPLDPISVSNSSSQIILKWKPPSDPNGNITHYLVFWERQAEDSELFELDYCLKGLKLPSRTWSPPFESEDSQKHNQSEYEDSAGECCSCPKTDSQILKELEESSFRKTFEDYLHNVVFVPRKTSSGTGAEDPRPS
Sequence of Insulin receptor (P06213 763-1382 limits assumed): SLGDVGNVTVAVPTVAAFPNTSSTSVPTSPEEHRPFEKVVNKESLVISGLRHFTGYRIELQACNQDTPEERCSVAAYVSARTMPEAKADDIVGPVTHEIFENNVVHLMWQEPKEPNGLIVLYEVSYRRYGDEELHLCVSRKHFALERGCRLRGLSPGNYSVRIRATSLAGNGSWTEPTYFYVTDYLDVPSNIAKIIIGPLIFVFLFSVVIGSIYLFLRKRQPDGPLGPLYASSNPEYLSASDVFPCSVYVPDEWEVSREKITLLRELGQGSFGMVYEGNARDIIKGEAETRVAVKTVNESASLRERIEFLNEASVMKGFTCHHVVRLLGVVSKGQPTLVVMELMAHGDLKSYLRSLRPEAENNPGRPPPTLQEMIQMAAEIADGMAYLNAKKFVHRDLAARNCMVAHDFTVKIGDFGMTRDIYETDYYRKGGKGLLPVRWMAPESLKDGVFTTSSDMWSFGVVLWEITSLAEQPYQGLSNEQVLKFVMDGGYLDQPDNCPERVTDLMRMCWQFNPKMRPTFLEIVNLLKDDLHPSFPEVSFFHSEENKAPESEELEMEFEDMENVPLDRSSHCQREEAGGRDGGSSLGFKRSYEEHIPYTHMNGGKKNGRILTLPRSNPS

[15] = biological target: Proto-oncogene tyrosine-protein kinase Src (Homo sapiens, UniProt P12931); format: functional;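 note: SRC entry within a kinome-wide kinase profiling panel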
[16] = biological target: Glycogen synthase kinase-3 alpha (Homo sapiens, UniProt P49840); format: functional;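 note: GSK3A result taken from a broad kinome-wide kinase panel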
[17] = biological target: Receptor-type tyrosine-protein kinase FLT3 (Homo sapiens, UniProt P36888); format: functional;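 note: FLT3 was tested as one member of a kinome-wide kinase panel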
[18] = biological target: Receptor tyrosine-protein kinase erbB-2 (Homo sapiens, UniProt P04626); experiment: Navigating the Kinome. Panel member name: ERBB2; format: functional
Sequence of Receptor tyrosine-protein kinase erbB-2 (P04626 whole entry): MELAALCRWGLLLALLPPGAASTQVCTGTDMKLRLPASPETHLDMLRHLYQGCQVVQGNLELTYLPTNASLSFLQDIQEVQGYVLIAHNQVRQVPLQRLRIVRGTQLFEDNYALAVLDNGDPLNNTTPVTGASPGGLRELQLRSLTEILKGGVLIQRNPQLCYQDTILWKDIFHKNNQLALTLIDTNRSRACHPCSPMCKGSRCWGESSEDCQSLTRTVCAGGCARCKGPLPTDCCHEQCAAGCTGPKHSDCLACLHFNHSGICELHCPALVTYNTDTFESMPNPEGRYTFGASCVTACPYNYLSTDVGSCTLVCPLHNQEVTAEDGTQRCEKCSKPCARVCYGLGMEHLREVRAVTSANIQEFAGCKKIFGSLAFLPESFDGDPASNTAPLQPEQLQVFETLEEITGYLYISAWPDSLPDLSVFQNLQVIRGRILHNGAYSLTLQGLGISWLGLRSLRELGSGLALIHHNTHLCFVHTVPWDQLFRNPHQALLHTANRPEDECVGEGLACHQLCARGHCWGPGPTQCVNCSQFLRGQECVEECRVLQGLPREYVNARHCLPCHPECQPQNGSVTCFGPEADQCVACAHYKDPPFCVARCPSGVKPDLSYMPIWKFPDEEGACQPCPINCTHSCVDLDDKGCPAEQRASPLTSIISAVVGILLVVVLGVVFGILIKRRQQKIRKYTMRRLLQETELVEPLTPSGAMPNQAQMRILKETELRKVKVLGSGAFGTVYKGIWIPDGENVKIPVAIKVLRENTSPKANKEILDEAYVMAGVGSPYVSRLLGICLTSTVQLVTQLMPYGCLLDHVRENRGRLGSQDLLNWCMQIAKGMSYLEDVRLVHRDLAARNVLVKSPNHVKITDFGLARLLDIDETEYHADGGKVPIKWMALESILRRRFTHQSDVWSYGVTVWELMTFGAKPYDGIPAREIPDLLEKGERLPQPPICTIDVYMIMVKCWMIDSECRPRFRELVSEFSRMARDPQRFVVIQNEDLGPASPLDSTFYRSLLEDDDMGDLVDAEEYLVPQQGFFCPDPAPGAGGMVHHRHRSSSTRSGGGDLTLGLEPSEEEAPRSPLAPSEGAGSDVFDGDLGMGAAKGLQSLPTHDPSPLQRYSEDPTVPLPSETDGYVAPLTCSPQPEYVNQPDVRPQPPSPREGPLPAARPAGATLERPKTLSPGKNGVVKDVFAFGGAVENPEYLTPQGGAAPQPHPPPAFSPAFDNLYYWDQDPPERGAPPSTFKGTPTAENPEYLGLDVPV

[19] = biological target: Interleukin-1 receptor-associated kinase 1 (Homo sapiens, UniProt P51617); format: functional;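 note: IRAK1 tested as one member of a kinome panel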
[20] = biological target: Tyrosine-protein kinase Fyn (Homo sapiens, UniProt P06241); format: functional
Sequence of Tyrosine-protein kinase Fyn (P06241 whole entry): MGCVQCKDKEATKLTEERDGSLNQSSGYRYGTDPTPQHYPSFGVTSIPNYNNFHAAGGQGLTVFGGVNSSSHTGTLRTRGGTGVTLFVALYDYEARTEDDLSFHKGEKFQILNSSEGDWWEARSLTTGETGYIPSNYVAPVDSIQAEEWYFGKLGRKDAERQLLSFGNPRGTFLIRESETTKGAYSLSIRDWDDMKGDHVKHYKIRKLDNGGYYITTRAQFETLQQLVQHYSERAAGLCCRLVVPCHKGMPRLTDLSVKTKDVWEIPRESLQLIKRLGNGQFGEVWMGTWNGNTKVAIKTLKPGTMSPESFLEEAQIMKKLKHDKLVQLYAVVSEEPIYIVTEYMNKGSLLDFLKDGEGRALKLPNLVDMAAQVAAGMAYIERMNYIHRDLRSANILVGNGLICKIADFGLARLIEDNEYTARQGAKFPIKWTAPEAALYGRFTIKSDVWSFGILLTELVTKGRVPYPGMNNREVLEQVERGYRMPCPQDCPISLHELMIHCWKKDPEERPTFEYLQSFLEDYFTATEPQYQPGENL

[21] = biological target: Vascular endothelial growth factor receptor 1 (Homo sapiens, UniProt P17948); format: functional;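 note: measured within a kinome-wide profiling panel, FLT1 as the panel member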
[22] = biological target: Glycogen synthase kinase-3 beta (Homo sapiens, UniProt P49841); format: functional;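 note: value comes from a broad kinome profiling panel, with GSK3B as the panel member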
[23] = biological target: Serine/threonine-protein kinase MRCK alpha (Homo sapiens, UniProt Q5VT25); format: functional
[24] = biological target: Serine/threonine-protein kinase 3 (Homo sapiens, UniProt Q13188); format: functional;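 note: measured as one member of a kinome-wide kinase panel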

T1 sequence (P51452 whole entry): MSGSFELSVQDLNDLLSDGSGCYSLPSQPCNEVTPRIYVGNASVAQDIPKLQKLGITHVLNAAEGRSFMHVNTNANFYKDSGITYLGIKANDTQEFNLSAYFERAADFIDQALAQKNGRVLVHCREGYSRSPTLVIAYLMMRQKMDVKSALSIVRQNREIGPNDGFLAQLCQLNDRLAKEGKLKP

## CCCc1nc2c(=O)n(C)c(=O)nc-2n(C)n1
[1]
  IC50: < 0.98 µM (inactive)
[2]
  IC50: < 1.24 µM (active)
[3]
  IC50: 5.55 µM (active)
[4]
  IC50: < 1.23 µM (not active)
[5]
  EC50: > 92.5 µM (inactive)
[6]
  IC50: 0.161 µM (active)
Caspase-8
  AC50: 0.31 µM (active)
[7]
  IC50: 0.494 µM (active)

## CC(=O)c1ccc(NC2=C(N3CCOCC3)C(=O)c3ccccc3C2=O)cc1
[8]
  IC50: 19.3 µM (not active)
[6]
  IC50: > 128 µM (inactive)

## COc1cc2ncn(-c3cc(OCc4ccccc4C(F)(F)F)c(C(N)=O)s3)c2cc1OC [GW843682X]
[9]
  Ki: > 7.94 µM (inactive)
[10]
  Ki: > 10 µM (inactive)
[11]
  Ki: > 1.58 µM (inactive)
[12]
  Ki: > 6.31 µM (inactive)
[13]
  Ki: > 6.31 µM (inactive)
[14]
  Ki: > 10 µM (inactive)
Insulin receptor
  Ki: > 5.01 µM (inactive)
[15]
  Ki: 5.01 µM (active)
[16]
  Ki: > 7.94 µM (inactive)
[17]
  Ki: 0.0501 µM (active)
[18]
  Ki: 1 µM (active)
[19]
  Ki: > 7.94 µM (inactive)
[20]
  Ki: > 0.794 µM (inactive)
[21]
  Ki: 0.126 µM (active)
[22]
  Ki: 2 µM (active)
[23]
  Ki: > 10 µM (inactive)
[24]
  Ki: 0.2 µM (active)
